According to patent publication US8153635B2, “Compounds and compositions as modulators of GPR119 activity” (IRM LLC, priority 2007, dated 2012):

Each compound was assayed against T1, human GPR119 (Homo sapiens, UniProt Q8TDV5) (assay: Cyclic AMP assay in CHO-hGPR119 cells (HTRF)). Conditions: increase in intracellular cAMP; GPR119-transfected CHO cells.
T1 construct: expressed in transfected cells; host or cells: Flp-In-CHO cells (Invitrogen, Cat.# R758-07), stably transfected with hGPR119 in pcDNA5/FRT plus pOG44
T1 sequence (Q8TDV5 1-335): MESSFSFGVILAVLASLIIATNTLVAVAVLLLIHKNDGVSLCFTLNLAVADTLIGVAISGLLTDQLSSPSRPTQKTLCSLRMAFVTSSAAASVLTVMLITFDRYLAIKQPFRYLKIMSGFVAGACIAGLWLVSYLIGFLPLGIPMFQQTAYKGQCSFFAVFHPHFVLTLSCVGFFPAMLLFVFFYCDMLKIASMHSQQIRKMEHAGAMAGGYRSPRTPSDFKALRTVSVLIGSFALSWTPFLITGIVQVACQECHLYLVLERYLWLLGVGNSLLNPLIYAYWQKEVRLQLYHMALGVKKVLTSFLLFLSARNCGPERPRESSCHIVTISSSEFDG
Type: cell-based
Protocol: Flp-In-CHO cells (Invitrogen, Cat.# R758-07) are maintained in Ham's F12 medium supplemented with 10% fetal bovine serum, 1% antibiotic mixture and 2 mM L-glutamine. The cells are transfected with a DNA mixture containing human GPR119 (hGPR119) or mouse GPR119 (mGPR119) in the pcDNA5/FRT vector (Invitrogen) and the pOG44 vector (Invitrogen) in a 1:9 ratio using Fugene6 (Roche), according to the manufacturer's instructions. After 48 hours, the medium is changed to medium supplemented with 400 μg/mL hygromycin B to initiate the selection of stably transfected cells. The resultant cell lines are designated CHO-hGPR119 and CHO-mGPR119 respectively.
To test the activity of compounds of the invention on human GPR119, CHO-hGPR119 cells are harvested and resuspended at 300,000 cells/mL in assay media (Ham's F12 medium plus 3% lipid-depleted fetal bovine serum, 1 mM 3-isobutyl-1-methyl-xanthine (IBMX)). Cells (5 μl) are placed in each well of a white 1536-well plate. A compound of the invention (50 nL) diluted in 100% dimethyl sulfoxide (DMSO) is added to each well and the plates are incubated at 37° C. for 30 minutes. cAMP concentrations are then measured using the cAMP dynamic 2 kit (Cisbio Bioassays) according to the manufacturer's instructions. 2.5 μL of diluted cAMP-XL665 is added to each well, followed by 2.5 μL diluted anti-cAMP-Cryptate. The plate is covered and incubated for one hour at room temperature, then read on an Envision plate reader (Perkin Elmer) using the HTRF method with excitation at 337 nm, and emissions measured at 620 nm and […].

SMILES	EC50 [µM]
CC(C)OC(=O)N1CCC(CCCOc2ccc(N3CCN(S(C)(=O)=O)CC3)cc2)CC1 [Example A3]	> 0.8
CC(C)c1noc(N2CCC(COc3ccc(N4CCN(S(C)(=O)=O)CC4)cn3)CC2)n1 [Example E9, 3-Isopropyl-5-(4-((5-(4-(methylsulfonyl)piperazin-1-yl)pyridin-2-yloxy)methyl)piperidin-1-yl)-1,2,4-oxadiazole]	0.2 to 0.8
CCc1cnc(N2CCC(CCCc3nc(N4CCN(S(C)(=O)=O)CC4)no3)CC2)nc1 [Example H3, 5-(3-(1-(5-Ethylpyrimidin-2-yl)piperidin-4-yl)propyl)-3-(4-(methylsulfonyl)piperazin-1-yl)-1,2,4-oxadiazole]	< 0.2
CC(C)c1noc(N2CCC(CCc3ncc(N4CCN(S(C)(=O)=O)CC4)s3)CC2)n1 [Example I1, 3-Isopropyl-5-(4-(2-(5-(4-(methylsulfonyl)piperazin-1-yl)thiazol-2-yl)ethyl)piperidin-1-yl)-1,2,4-oxadiazole]	< 0.2
CC(C)c1nc(N2CCC(COc3ccc(C4=CCN(S(C)(=O)=O)CC4)cc3)CC2)no1 [Example J7]	< 0.2
CS(=O)(=O)N1CCC(c2ccc(OCC3CCN(c4ccc(Cl)cn4)CC3)cc2)CC1 [Example J22]	< 0.2
CCc1cnc(N2CCC(Oc3ccc4c5c(oc4c3)CN(S(C)(=O)=O)CC5)CC2)nc1 [Example V5, 7-(1-(5-Ethylpyrimidin-2-yl)piperidin-4-yloxy)-2-(methylsulfonyl)-1,2,3,4-tetrahydrobenzofuro[2,3-c]pyridine]	< 0.2

More lines, now with the values ahead:

EC50 [µM]	SMILES
> 0.8	CC(C)OC(=O)N1CCC(COc2ccc(N3CCN(S(C)(=O)=O)CC3)nn2)CC1 [Example C2, Isopropyl 4-((6-(4-(methylsulfonyl)piperazin-1-yl)pyridazin-3-yloxy)methyl)piperidine-1-carboxylate]
0.2 to 0.8	CC(C)OC(=O)N1CCC(CCc2ccc(N3CCN(S(C)(=O)=O)CC3)nc2)CC1 [Example D2, Isopropyl 4-(2-(6-(4-(methylsulfonyl)piperazin-1-yl)pyridin-3-yl)ethyl)piperidine-1-carboxylate]
< 0.2	CC1(OC(=O)N2CCC(COc3cnc(N4CCN(S(C)(=O)=O)CC4)cn3)CC2)CC1 [Example E3, 1-Methylcyclopropyl 4-((5-(4-(methylsulfonyl)piperazin-1-yl)pyrazin-2-yloxy)methyl)piperidine-1-carboxylate]
> 0.8	CC(C)(C)OC(=O)N1CCC(COc2cnc(N3CCCN(S(C)(=O)=O)CC3)cn2)CC1 [Example G1, tert-Butyl 4-((5-(4-(methylsulfonyl)-1,4-diazepan-1-yl)pyrazin-2-yloxy)methyl)piperidine-1-carboxylate]
< 0.2	CC1(OC(=O)N2CCC(COc3cnc(N4CCC(S(C)(=O)=O)CC4)cn3)CC2)CC1 [Example G4, 1-Methylcyclopropyl 4-((5-(4-(methylsulfonyl)piperidin-1-yl)pyrazin-2-yloxy)methyl)piperidine-1-carboxylate]
< 0.2	CC1(OC(=O)N2CCC(COc3cnc(N4CCN(S(=O)(=O)CCCN5CCC5)CC4=O)cn3)CC2)CC1 [Example O9]
< 0.2	CC1(OC(=O)N2CCC(COc3cnc(N4CCN(S(=O)(=O)[C@@H]5CCNC5)CC4=O)cn3)CC2)CC1 [Example O41]
0.2 to 0.8	CS(=O)(=O)N1CCC(C(=O)O)(c2ccc(OCC3CCN(c4ncc(F)cn4)CC3)cc2)CC1 [Example T1, 4-(4-((1-(5-fluoropyrimidin-2-yl)piperidin-4-yl)methoxy)phenyl)-1-(methylsulfonyl)piperidine-4-carboxylic acid]
< 0.2	CC1(OC(=O)N2CCC(COc3cnc(N4CC(NS(C)(=O)=O)C4)cn3)CC2)CC1 [Example U5, 1-Methylcyclopropyl 4-((5-(3-(methylsulfonamido)azetidin-1-yl)pyrazin-2-yloxy)methyl)piperidine-1-carboxylate]
